Assay results as given in patent US20260272920A1, “NLRP3 MODULATORS” (Zomagen Biosciences Ltd, priority 2023, published 2026).

Each compound was assayed on NLRP3 (assay: IL-1β Assay in THP1 Cells (LPS priming + nigericin, NLRP3 activation)). Details: Homo sapiens, THP-1; THP1 cells primed with 100 ng/mL LPS, 10 μM nigericin 3 hours; IL-1β released in supernatant; read-out: IL-1b (IC50).
Assay type: cell-based
Protocol: Example 10: IL-1β Assay in THP1 Cells
THP1 cells were primed with 100 ng/mL LPS in test medium (RPMI1640+GlutaMAX+25 mM HEPES+10% HI FBS+1% Pen/Strep) overnight at 37° C. and 5% CO2. Compounds were serially diluted in test medium and added to 200 000 cells/well for 1 hour at 37° C. and 5% CO2. After 1 hour, nigericin was added at 10 μM final concentration and incubated in at 37° C. and 5% CO2 for 3 hours to induce NLRP3 activation. IL-1β released from THP1 was detected in the cell supernatant by the ELLA (Simple Plex, Bio-Techne) Human IL-1β Immunoassays. The average of the positive control (LPS+nigericin) and the negative control (LPS alone) was calculated. The % inhibition of each test well was calculated by the following formula: % inhibition per well=[(average of positive control−single well signal value)/(average of positive control−average of negative control)]*100%. The compound inhibition curve was fitted by using a four-parameter logistic dose response equation: compound concentration was converted into logarithm base 10, and its concentration and % inhibition is imported into Graphpad prism software.

SMILES	IC50 [µM]
Cc1cc([C@H](O)[C@@H]2CCCN(C)C2)nnc1-c1ccc(C(F)(F)F)cc1 [Compound 28, (R)-(5-methyl-6-(4-(trifluoromethyl)phenyl)pyridazin-3-yl)((R)-1-methylpiperidin-3-yl)methanol]	0.5 to 3
CCN1CCCC(C(O)c2cc(C)c(-c3ccc4c(F)c[nH]c4c3)nn2)C1 (stereo not drawn) [Compound 10, (1-ethylpiperidin-3-yl)(6-(3-fluoro-1H-indol-6-yl)-5-methylpyridazin-3-yl)methanol]	< 0.5
Cc1cc(C(O)C2CCCN(C)C2)nnc1-c1ccc(C(F)(F)F)cc1CC(F)(F)F (stereo not drawn) [Compound 21, (5-methyl-6-(2-(2,2,2-trifluoroethyl)-4-(trifluoromethyl)phenyl)pyridazin-3-yl)(1-methylpiperidin-3-yl)methanol]	0.5 to 3
Cc1cc(C(O)C2CCCN(C)C2)nnc1-c1ccc2occc2c1 (stereo not drawn) [Compound 16, (6-(benzofuran-5-yl)-5-methylpyridazin-3-yl)(1-methylpiperidin-3-yl)methanol]	< 0.5
Cc1cc([C@H](O)[C@@H]2CCCN(C)C2)nnc1-c1ccc(C(F)(F)F)cc1OC(F)F [Compound 31, (R)-(6-(2-(difluoromethoxy)-4-(trifluoromethyl)phenyl)-5-methylpyridazin-3-yl)((R)-1-methylpiperidin-3-yl)methanol]	< 0.5
CCN1CCCC(C(O)c2cc(C)c(-c3ccc4occc4c3)nn2)C1 (stereo not drawn) [Compound 17, (6-(benzofuran-5-yl)-5-methylpyridazin-3-yl)(1-ethylpiperidin-3-yl)methanol]	< 0.5

Further lines, results first:

IC50 [µM]	SMILES
< 0.5	CCN1CCC[C@@H]([C@@H](O)c2cc(C)c(-c3ccc(C(F)(F)F)cc3OC(F)F)nn2)C1 [Compound 33, (R)-(6-(2-(difluoromethoxy)-4-(trifluoromethyl)phenyl)-5-methylpyridazin-3-yl)((R)-1-ethylpiperidin-3-yl)methanol]
< 0.5	CCN1CCCC(C(O)c2cc(C)c(-c3ccc4cc[nH]c4c3)nn2)C1 (stereo not drawn) [Compound 12, (6-(1H-indol-6-yl)-5-methylpyridazin-3-yl) (1-ethylpiperidin-3-yl) methanol]
< 0.5	CCN1CCC[C@@H]([C@@H](O)c2cc(C)c(-c3ccc(C(F)(F)F)cc3)nn2)C1 [Compound 29, (R)-((R)-1-ethylpiperidin-3-yl)(5-methyl-6-(4-(trifluoromethyl)phenyl)pyridazin-3-yl)methanol]
